Data: patent US7943749B2, “Antimicrobial 2-deoxystreptamine compounds” (Isis Pharmaceuticals, Inc., priority 2004, dated 2011)
pIC50, pKd: −log10 of the molar value. Where “and” joins values, the source holds several entries; their conditions need not be identical. Identical values can stand only once. Like-named read-outs stand apart in the source and are kept apart here.

Assays:
S. Aureus = assay: MIC, S. Aureus; type: cell-based; details: 24 h
Experimental: (§1) The MIC assays are carried out in 150 μL volume in duplicate in 96-well clear flat-bottom plates. The bacterial suspension from an overnight culture growth in appropriate medium is added to a solution of test compound in 4% DMSO in water. Final bacterial inoculum is approximately 10^5-10^6 CFU/well. […] Both ampicillin and tetracycline are used as antibiotic-positive controls in each screening assay for S. pyogenes, E. coli imp-, E. coli, S. aureus, E. faecalis, K. pneumoniae and P. vulgaris. Ciprofloxacin is used as an antibiotic positive control in each screening assay for P. aeruginosa.

E. Coli = assay: MIC, E. Coli; type: cell-based; details: 24 h;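 also: minimum inhibitory concentration determined in duplicate in 96-well plates, compounds given in 4% aqueous DMSO, with ampicillin and tetracycline as positive controls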
Experimental: as §1

[1] = test system: E. coli S30 bacterial extract (pBestLuc luciferase reporter); assay: Coupled bacterial transcription/translation assay; type: biochemical; details: read-out: Trans/trans IC50
Experimental: The DNA template, pBestLuc™ (Promega), is a plasmid containing a reporter gene for firefly luciferase fused to a strong tac promoter and ribosome binding site. Messenger RNA from 1 μg pBestLuc is transcribed and translated in E. coli S30 bacterial extract in the presence or absence of test compound. Compounds are tested in a black 96 well microtiter plate with an assay volume of 35 μL. […] The transcription/translation reaction is incubated for 35 minutes at 37° C. followed by detection of functional luciferase with the addition of 30 μL LucLite™ (Packard). Light output is quantitated on a Packard TopCount.

[2] = target: 16S ribosomal subunit RNA target; assay: Mass spectrometry based binding assay (FTICR), 16S
Experimental: In a typical experiment, 10 μL of an aqueous solution containing 100 mM ammonium acetate buffer, 2.5 or 5 μM of each RNA, and 33% isopropyl alcohol (to aid ion desolvation) was prepared with different concentrations of each ligand or ligand mixture. Samples were introduced into the electrospray ionization source (negative ionization mode) at 1 μL/min and ions were stored for 1 sec in an RF-only hexapole following desolvation. The abundances were integrated from the respective ions for free RNA and the ligand-RNA complex. The primary (1:1 RNA:ligand) and secondary (1:2 complex, if observed). […] The peak ratios were measured at each concentration, then a plot of complex/free RNA versus concentration of ligand added was fitted to a second (or higher) order binding polynomial to determine the KD.

[3] = range between growth and complete inhibition

Experimental for S. aureus (ATCC 13709): Male ICR mice are fed with autoclaved commercial food pellets and sterile water ad libitum. Animals are inoculated intraperitoneally with 1.0×10^6 CFU/0.5 mL/mouse of S. aureus (ATCC 13709) containing 10% mucin. Ten animals each are randomly assigned to either control or treatment groups. Test compound and gentamycin (included as a positive control) are both administered subcutaneously one and 3 hour after infection. Test compound is administered as an aqueous buffer solution (phosphate buffered saline (PBS), pH=7.4). The data is presented as the number of mice out of the 10 in the group that were not protected from lethal infection.

| SMILES | MIC S. Aureus (S. Aureus) | MIC E. Coli. (E. Coli) | also measured |
| --- | --- | --- | --- |
| NCCN(CCN)CCOC1C(OC2C(O)C(N)CC(N)C2OC2OC(CO)C(O)C(O)C2N)OC(CO)C1OC1OC(CN)C(O)C(O)C1N (stereo not drawn) [IBIS00560172] |  |  | MIC S. Aureus (S. Aureus; [3]): 25 to 50 µM; MIC E. Coli. (E. Coli; [3]): >50 µM |
| CN(C)CCOC1C(OC2C(O)C(N)CC(N)C2OC2OC(CO)C(O)C(O)C2N)OC(CO)C1OC1OC(CN)C(O)C(O)C1N (stereo not drawn) [IBIS00560174] |  |  | pIC50 [1]: 6.68; pKd [2]: 6.03; MIC S. Aureus (S. Aureus; [3]): 6 to 12 µM; MIC E. Coli. (E. Coli; [3]): 12 to 52 µM |
| NCCCNCCOC1C(OC2C(O)C(N)CC(N)C2OC2OC(CO)C(O)C(O)C2N)OC(CO)C1OC1OC(CN)C(O)C(O)C1N (stereo not drawn) [IBIS00560175] |  |  | pIC50 [1]: 6.54; MIC S. Aureus (S. Aureus; [3]): 3 to 6 µM and 3 µM; MIC E. Coli. (E. Coli; [3]): 25 to 50 µM and 25 µM |
| NCCNCCOC1C(OC2C(O)C(N)CC(N)C2OC2OC(CO)C(O)C(O)C2N)OC(CO)C1OC1OC(CN)C(O)C(O)C1N (stereo not drawn) [IBIS00560177] |  |  | pIC50 [1]: 6.54; MIC S. Aureus (S. Aureus; [3]): 2 µM and 2 to 3 µM; MIC E. Coli. (E. Coli; [3]): 6 µM and 6 to 12 µM |
| NCC1OC(OC2C(CO)OC(OC3C(O)C(N)CC(N)C3OC3OC(CO)C(O)C(O)C3N)C2OCCNC2CCCNC2)C(N)C(O)C1O (stereo not drawn) [IBIS00560725] |  |  | pIC50 [1]: 7.10; pKd [2]: 6.96; MIC S. Aureus (S. Aureus; [3]): 3 to 6 µM; MIC E. Coli. (E. Coli; [3]): 1.5-3^ μM |
| NCC1OC(OC2C(CO)OC(OC3C(O)C(N)CC(N)C3OC3OC(CO)C(O)C(O)C3N)C2OCCNCC2CCCNC2)C(N)C(O)C1O (stereo not drawn) [IBIS00560726] |  |  | pKd [2]: 6.60 and 6.89 |
| NCC1OC(OC2C(CO)OC(OC3C(O)C(N)CC(N)C3OC3OC(CO)C(O)C(O)C3N)C2OCCNCc2nc3ccccc3[nH]2)C(N)C(O)C1O (stereo not drawn) [IBIS00560797] |  |  | pIC50 [1]: 6.47; pKd [2]: 5.39; MIC S. Aureus (S. Aureus; [3]): 25 to 50 µM; MIC E. Coli. (E. Coli; [3]): 6 to 12 µM |
| NCC1OC(OC2C(CO)OC(OC3C(O)C(N)CC(N)C3OC3OC(CO)C(O)C(O)C3N)C2OCCNC2CCCCC2)C(N)C(O)C1O (stereo not drawn) [IBIS00560931] | 3 to 5 µM | 3 to 6 µM |  |
| NCC1OC(OC2C(CO)OC(OC3C(O)C(N)CC(N)C3OC3OC(CO)C(O)C(O)C3N)C2OCCNc2ccccc2)C(N)C(O)C1O (stereo not drawn) [IBIS00560932] | 6 to 12 µM | 50 to 100 µM |  |
| NCC1OC(OC2C(CO)OC(OC3C(O)C(N)CC(N)C3OC3OC(CO)C(O)C(O)C3N)C2OCCNCc2ccnc(N)c2)C(N)C(O)C1O (stereo not drawn) [IBIS00560965] | 0.6-1^ μM | 6 to 12 µM |  |
| NCC1OC(OC2C(CO)OC(OC3C(O)C(N)CC(N)C3OC3OC(CO)C(O)C(O)C3N)C2OCCNCCc2cccnc2)C(N)C(O)C1O (stereo not drawn) [IBIS00560972] | 0.6-1^ μM | 6 to 12 µM |  |
| NCC1OC(OC2C(CO)OC(OC3C(O)C(N)CC(N)C3OC3OC(CO)C(O)C(O)C3N)C2OCCNCCc2ccccc2)C(N)C(O)C1O (stereo not drawn) [IBIS00560973] | 0.3 to 0.6 µM | 3 to 6 µM | number of mice out of the 10 in the group that were not protected from lethal infection (S. aureus (ATCC 13709); 0.1 mg/kg subcutaneously 1 and 3 hour after i.p. infection): 5/10; number of mice out of the 10 in the group that were not protected from lethal infection (S. aureus (ATCC 13709); 0.5 mg/kg subcutaneously 1 and 3 hour after i.p. infection): 0/10; number of mice out of the 10 in the group that were not protected from lethal infection (S. aureus (ATCC 13709); 1 mg/kg subcutaneously 1 and 3 hour after i.p. infection): 0/10; number of mice out of the 10 in the group that were not protected from lethal infection (S. aureus (ATCC 13709); 2 mg/kg subcutaneously 1 and 3 hour after i.p. infection): 0/10; number of mice out of the 10 in the group that were not protected from lethal infection (S. aureus (ATCC 13709); 4.5 mg/kg subcutaneously 1 and 3 hour after i.p. infection): 0/10; number of mice out of the 10 in the group that were not protected from lethal infection (S. aureus (ATCC 13709); 9 mg/kg subcutaneously 1 and 3 hour after i.p. infection): 0/10; number of mice out of the 10 in the group that were not protected from lethal infection (S. aureus (ATCC 13709); 18 mg/kg subcutaneously 1 and 3 hour after i.p. infection): 0/10; number of mice out of the 10 in the group that were not protected from lethal infection (S. aureus (ATCC 13709); 37 mg/kg subcutaneously 1 and 3 hour after i.p. infection): 0/10; number of mice out of the 10 in the group that were not protected from lethal infection (S. aureus (ATCC 13709); 75 mg/kg subcutaneously 1 and 3 hour after i.p. infection): 0/10; prevention of lethal bacterial infection in mice (in words) (S. aureus (ATCC 13709); S. aureus ATCC 13709 i.p., compound s.c.): effective at preventing lethal bacterial infections in mice; number of mice out of the 10 in the group that were not protected from lethal infection (S. aureus (ATCC 13709); mouse, in vivo): 1/10 |
| NCC1OC(OC2C(CO)OC(OC3C(O)C(N)CC(N)C3OC3OC(CO)C(O)C(O)C3N)C2OCCNCc2ccccc2)C(N)C(O)C1O (stereo not drawn) [IBIS00560974] | 3 to 5 µM | 3 to 6 µM |  |
| NCC1OC(OC2C(CO)OC(OC3C(O)C(N)CC(N)C3OC3OC(CO)C(O)C(O)C3N)C2OCCNCc2ccc(N)nc2)C(N)C(O)C1O (stereo not drawn) [IBIS00560975] | 0.3 to 0.6 µM | 3 to 6 µM |  |
| NCC1OC(OC2C(CO)OC(OC3C(O)C(N)CC(N)C3OC3OC(CO)C(O)C(O)C3N)C2OCCNc2ccccn2)C(N)C(O)C1O (stereo not drawn) [IBIS00561109] | 1 to 2 µM | 12 to 25 µM |  |
| NCC1OC(OC2C(CO)OC(OC3C(O)C(N)CC(N)C3OC3OC(CO)C(O)C(O)C3N)C2OCCNCCCc2ccccc2)C(N)C(O)C1O (stereo not drawn) [IBIS00561144] | 0.6 to 1.2 µM | 3 to 5 µM |  |
| NCC1OC(OC2C(CO)OC(OC3C(O)C(N)CC(N)C3OC3OC(CO)C(O)C(O)C3N)C2OCCNCCCCc2ccccc2)C(N)C(O)C1O (stereo not drawn) [IBIS00561145] | 0.6 to 1.2 µM | 3 to 5 µM |  |
| COc1cc(CCNCCOC2C(OC3C(O)C(N)CC(N)C3OC3OC(CO)C(O)C(O)C3N)OC(CO)C2OC2OC(CN)C(O)C(O)C2N)cc(OC)c1 (stereo not drawn) [IBIS00561192] | 5 to 10 µM | 10 to 20 µM |  |
| NCC1OC(OC2C(CO)OC(OC3C(O)C(N)CC(N)C3OC3OC(CO)C(O)C(O)C3N)C2OCCNCCc2ccc(-c3ccccc3)cc2)C(N)C(O)C1O (stereo not drawn) [IBIS00561193] | 5 to 10 µM | 20 to 40 µM |  |
| NCC1OC(OC2C(CO)OC(OC3C(O)C(N)CC(N)C3OC3OC(CO)C(O)C(O)C3N)C2OCCNC23CC4CC(CC(O)(C4)C2)C3)C(N)C(O)C1O (stereo not drawn) [IBIS00561195] | 1 to 3 µM | 20 to 40 µM |  |
| NCC1OC(OC2C(CO)OC(OC3C(O)C(N)CC(N)C3OC3OC(CO)C(O)C(O)C3N)C2OCCNC2CCCc3ccccc32)C(N)C(O)C1O (stereo not drawn) [IBIS00561950] | 1.25 to 2.5 µM | >10 µM |  |
| NCC1OC(OC2C(CO)OC(OC3C(O)C(N)CC(N)C3OC3OC(CO)C(O)C(O)C3N)C2OCCNCCC2CC3CCC2C3)C(N)C(O)C1O (stereo not drawn) [IBIS00561951] | 5.0 to 10.0 µM | >10 µM |  |
| CC(C)CCCC(C)C1CCC2C3CCC4CC(NCCOC5C(OC6C(O)C(N)CC(N)C6OC6OC(CO)C(O)C(O)C6N)OC(CO)C5OC5OC(CN)C(O)C(O)C5N)CCC4(C)C3CCC12C (stereo not drawn) [IBIS00561952] | 2.5 to 5.0 µM | >10 µM |  |
| NCC1OC(OC2C(CO)OC(OC3C(O)C(N)CC(N)C3OC3OC(CO)C(O)C(O)C3N)C2OCCNCCc2cc(C(F)(F)F)cc(C(F)(F)F)c2)C(N)C(O)C1O (stereo not drawn) [IBIS00561954] | 2.5 to 5.0 µM | >10 µM |  |
